# Literature values in patent publication US20150209404A1, “CELLULAR BLOOD MARKERS FOR EARLY DIAGNOSIS OF ALS AND FOR ALS PROGRESSION” (YEDA RESEARCH AND DEVELOPMENT CO. LTD., priority 2010, published 2015).
# Conditions: ALS patients; Copaxone given daily; both drugs effective in treating MS
substance,measurement,value
glatiramer acetate [Copaxone],outcome of treatment in ALS,failed and were even detrimental
